Measurements reported in BindingDB's records for doi:10.1111/cbdd.12481 (University of Kwazulu-Nata, 2015).

Assays:
[1] = molecular target: 72 kDa type IV collagenase (Homo sapiens, UniProt P08253); assay: MMP2 Inhibition Assay; settings: pH 8.5; 25 °C
Experimental: The synthesized compounds were assayed for the inhibitory activities against MMP-2 in 96-well microtiter plates using succinylated gelatin as the substrate. The compound and enzyme were dissolved in sodium borate buffer (pH 8.5, 50 mM) and incubated at 37 °C for 30 min. The substrate was added and incubated at 37 °C for another 60 min. The 100% and blank groups were also carried out, in which the 100% group contained not compound and the blank group contained […]. Then, 0.03% picrylsulfonic acid solution was added and incubated at room temperature for additional 20 min. The resulting solutions were measured under 450 nm.

[2] = molecular target: Macrophage metalloelastase (Homo sapiens, UniProt P39900); assay: MMP12 Inhibition Assay; settings: pH 8; 25 °C
Experimental: The synthesized compounds were assayed for the inhibitory activities against MMP-12 in 96-well microtiter plates using thiopeptolide as the substrate. MMP-12 was diluted in Assay buffer (50 mM Tris pH7.5, 0.05% Brij-35, 10 mM CaCl2, 1 mM DTNB) to a concentration of 0.007 U/µL. The MMP-12 solution (44 µL) was premixed with 1 µL of inhibitors dissolved in DMSO in a 96-well plate, and the mixture was incubated for 20 min at room temperature. Then, 5 µL of 1 mM MMP chromogenic substrate (thiopeptolide) was added to the mixture, and the reaction mixture was incubated for 30-80 min at 37 °C. Reaction was terminated by adding 7 µL of 0.2 M EDTA (pH 8.0). The intensity of the color developed by the digested substrate was measuredat 405 nm.

Chain of 72 kDa type IV collagenase (P08253 whole entry): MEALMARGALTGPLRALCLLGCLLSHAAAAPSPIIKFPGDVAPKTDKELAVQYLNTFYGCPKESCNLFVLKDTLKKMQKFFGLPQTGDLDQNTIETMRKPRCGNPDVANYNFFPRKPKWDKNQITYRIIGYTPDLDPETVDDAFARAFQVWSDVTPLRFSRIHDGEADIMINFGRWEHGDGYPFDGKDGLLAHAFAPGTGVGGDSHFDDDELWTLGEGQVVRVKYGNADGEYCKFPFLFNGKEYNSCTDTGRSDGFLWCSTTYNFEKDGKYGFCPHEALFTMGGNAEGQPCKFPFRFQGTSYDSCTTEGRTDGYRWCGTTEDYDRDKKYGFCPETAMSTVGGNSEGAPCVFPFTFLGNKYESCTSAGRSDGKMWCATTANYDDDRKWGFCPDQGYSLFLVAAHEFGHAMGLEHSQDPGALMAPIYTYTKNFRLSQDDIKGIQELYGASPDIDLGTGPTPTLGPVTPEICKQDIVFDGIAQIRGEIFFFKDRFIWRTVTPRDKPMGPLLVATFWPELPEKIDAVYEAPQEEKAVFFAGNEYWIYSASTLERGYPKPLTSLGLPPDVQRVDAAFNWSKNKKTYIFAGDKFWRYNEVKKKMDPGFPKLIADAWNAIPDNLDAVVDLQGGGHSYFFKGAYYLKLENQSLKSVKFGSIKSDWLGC
Chain of Macrophage metalloelastase (P39900 whole entry): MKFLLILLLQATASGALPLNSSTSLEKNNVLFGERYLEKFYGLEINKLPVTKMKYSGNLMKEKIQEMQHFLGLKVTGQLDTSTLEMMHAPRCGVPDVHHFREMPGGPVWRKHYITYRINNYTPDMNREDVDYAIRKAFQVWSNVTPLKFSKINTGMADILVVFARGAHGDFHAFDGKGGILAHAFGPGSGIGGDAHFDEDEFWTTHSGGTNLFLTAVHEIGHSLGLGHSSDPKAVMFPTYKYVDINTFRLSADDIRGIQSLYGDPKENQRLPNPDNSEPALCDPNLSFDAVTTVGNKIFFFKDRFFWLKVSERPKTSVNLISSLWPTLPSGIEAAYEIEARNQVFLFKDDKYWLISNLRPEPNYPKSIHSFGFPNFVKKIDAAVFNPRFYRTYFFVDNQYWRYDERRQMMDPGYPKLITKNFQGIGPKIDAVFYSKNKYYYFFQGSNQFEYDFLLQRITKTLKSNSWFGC

SMILES	IC50 [1]	IC50 [2]
Cn1c(C(=O)NNC(=O)Nc2ccco2)cc(Br)c1Br [2-(1-Methyl-4,5-dibromo-1H-pyrrole-2-carbonyl-N-(furan-2-yl))hydrazine carboxamide (4s)]	60.3 µM	84.2 µM
O=C(NNC(=S)Nc1ccc([N+](=O)[O-])cc1)c1cc(Br)c(Br)[nH]1 [2-(4,5-Dibromo-1H-pyrrole-2-carbonyl)-N-(4-nitrophenyl)hydrazine carbothioamide (5c)]	13.7 µM	42.1 µM
Cn1c(C(=O)NNC(=S)Nc2ccccc2F)cc(Br)c1Br [2-(1-Methyl-4,5-dibromo-1H-pyrrole-2-carbonyl)-N-(2-fluorophenyl)hydrazine carbothioamide (5n)]	8 µM	43.1 µM
COc1cc(NC(=S)NNC(=O)c2cc(Br)c(Br)n2C)cc(OC)c1OC [2-(1-Methyl-4,5-dibromo-1H-pyrrole-2-carbonyl)-N-(3,4,5-trimethoxyphenyl) hydrazine carbothioamide (5t)]	19.2 µM	23.8 µM
O=C(NNC(=S)Nc1ccc(Cl)cc1)c1cc(Br)c(Br)[nH]1 [2-(4,5-Dibromo-1H-pyrrole-2-carbonyl)-N-(4-chlorophenyl)hydrazine carbothioamide (5e)]	1.8 µM	29 µM
